Results as given in patent publication US20230078764A1 (Yumanity Therapeutics, Inc., priority 2019, published 2023).
Like-named read-outs stand apart in the source and are kept apart here.

Assays:
human SCD1 = biological target: T1, human SCD1 (Homo sapiens, UniProt O00767); assay: Growth inhibition of yeast strain expressing human SCD1 as sole desaturase (OLE1 deleted), OD600 readout; assay type: cell-based
T1 construct: expressed in transfected cells; host or cells: yeast strain with OLE1 deleted, plasmid-borne human SCD1 (selected in SD-Ura)
T1 sequence (O00767 1-359): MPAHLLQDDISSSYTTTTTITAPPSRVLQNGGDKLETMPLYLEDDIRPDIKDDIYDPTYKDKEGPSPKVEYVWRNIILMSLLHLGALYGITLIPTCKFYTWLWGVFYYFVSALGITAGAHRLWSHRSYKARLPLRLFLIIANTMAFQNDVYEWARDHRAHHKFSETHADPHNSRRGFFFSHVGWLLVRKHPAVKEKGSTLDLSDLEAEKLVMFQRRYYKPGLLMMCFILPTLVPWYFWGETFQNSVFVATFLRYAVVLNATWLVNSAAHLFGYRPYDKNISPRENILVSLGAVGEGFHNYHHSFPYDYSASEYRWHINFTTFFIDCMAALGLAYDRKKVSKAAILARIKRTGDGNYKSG

human SCD5 = biological target: T2, human SCD5 (Homo sapiens, UniProt Q86SK9); assay: Growth inhibition of yeast strain expressing human SCD5 as sole desaturase (OLE1 deleted), OD600 readout; assay type: cell-based
T2 construct: expressed in transfected cells; host or cells: yeast strain with OLE1 deleted, plasmid-borne human SCD5 (selected in SD-Ura)
T2 sequence (Q86SK9 1-330): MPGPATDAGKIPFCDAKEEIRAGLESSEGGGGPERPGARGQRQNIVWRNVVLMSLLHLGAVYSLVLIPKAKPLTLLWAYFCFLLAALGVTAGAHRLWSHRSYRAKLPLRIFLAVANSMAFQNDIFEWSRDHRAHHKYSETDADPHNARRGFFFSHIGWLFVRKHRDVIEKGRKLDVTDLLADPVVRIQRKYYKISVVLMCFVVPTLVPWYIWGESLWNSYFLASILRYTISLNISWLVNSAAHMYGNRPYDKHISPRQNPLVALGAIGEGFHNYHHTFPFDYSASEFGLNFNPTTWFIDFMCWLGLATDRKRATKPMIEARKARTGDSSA

[1] = yeast strain expressing human SCD1 as sole desaturase, growth (OD600) after 40 h at 30° C., read-out: SCD1 IC50
[2] = yeast strain expressing human SCD5 as sole desaturase, growth (OD600) after 40 h at 30° C., read-out: SCD5 IC50

SMILES | IC50 (human SCD1; [1]) | IC50 (human SCD5; [2]) | IC50 (human SCD1; SCD1 IC50) | IC50 (human SCD5; SCD5 IC50)
Cn1nc(C(=O)Nc2ccc(Cc3cccc(Cl)c3)nn2)ccc1=O [Compound 196, N-(6-(3-chlorobenzyl)pyridazin-3-yl)-1-methyl-6-oxo-1,6-dihydropyridazine-3-carboxamide] | 5580 nM | 1560 nM | – | –
Cn1nc(C(=O)Nc2ccc(Cc3ccc(F)c(C(F)F)c3)cn2)ccc1=O [Compound 575] | 370 nM | 10 nM | – | –
Cn1cc(C(=O)Nc2ccc(Cc3ccc(F)cc3F)cn2)ccc1=O [Compound 538] | 1600 nM | 180 nM | – | –
CC(O)c1ccc(C(=O)Nc2ccc(Cc3cccc(F)c3)cn2)cn1 (stereo not drawn) [Compound 529] | 1100 nM | 670 nM | – | –
Cn1c(C(=O)Nc2ccc(Cc3cccc(Cl)c3)cn2)cc(=O)n1C [Compound 460] | > 45000 nM | > 45000 nM | – | –
CN1N=C(C(=O)Nc2ncc(Oc3ccccc3Cl)s2)CCC1=O [Compound 416] | > 45000 nM | > 45000 nM | – | –
Cn1cccc(C(=O)Nc2ccc(Cc3ccc(F)c(Cl)c3)cn2)c1=O [Compound 331] | 130 nM | 10 nM | – | –
N#Cc1ccc(C(=O)Nc2ccc(Cc3cc(F)ccc3F)cn2)cn1 [Compound 629] | 3300 nM | 250 nM | – | –
O=C(Nc1ccc(C=C2CCOCC2)cn1)c1ccc(CO)nc1 [Compound 637] | 12000 nM | 8100 nM | – | –
COc1cc(Cc2ccc(NC(=O)c3cnc(C#N)cn3)nc2)ccc1F [Compound 638] | 3200 nM | 98 nM | – | –
N#Cc1cnc(NC(=O)c2ccc(Cc3cccc(F)c3)cn2)nc1 [Compound 627] | 327 nM | 10 nM | – | –
N#Cc1ccc(C(=O)Nc2ccc(Cc3cc(F)cc(F)c3)cn2)cn1 [Compound 478] | 2100 nM | 19 nM | – | –
O=C(NNC(=O)C(F)(F)F)C(=O)Nc1ccc(Cc2cccc(Cl)c2)cn1 [Compound 682] | 100 nM | 200 nM | – | –
O=C(Nc1ccc(Cc2cccc(F)c2)nn1)c1ccc(=O)n(C2CC2)n1 [Compound 178, 1-cyclopropyl-N-{6-[(3-fluorophenyl)methyl]pyridazin-3-yl}-6-oxo-1,6-dihydropyridazine-3-carboxamide] | 6670 nM | 770 nM | – | –
Cn1cc(C(=O)Nc2ccc(COc3ccc(F)c(Cl)c3)cn2)ccc1=O [Compound 266] | 1850 nM | 400 nM | – | –
N#Cc1cc(Cl)cc(Cc2ccc(NC(=O)c3ccnnc3)nc2)c1 [Compound 669] | 220 nM | 73 nM | – | –
CN1N=C(C(=O)Nc2ccc(Cc3cccc(C(F)(F)F)c3)nn2)CCC1=O [Compound 194, 1-methyl-6-oxo-N-(6-(3-(trifluoromethyl)benzyl)pyridazin-3-yl)-1,4,5,6-tetrahydropyridazine-3-carboxamide] | > 45000 nM | 1540 nM | – | –
COc1cc(Cl)cc(Cc2ccc(NC(=O)c3ccc(=O)n(C)n3)nc2)c1 [Compound 282] | 210 nM | 20 nM | – | –

SMILES | IC50 (human SCD1; [1]) | IC50 (human SCD5; [2]) | IC50 (human SCD1; SCD1 IC50) | IC50 (human SCD5; SCD5 IC50)
COc1cccc(Cc2cnc(NC(=O)c3ccc(=O)n(C)n3)s2)c1 [Compound 212, N-(5-(3-methoxybenzyl)thiazol-2-yl)-1-methyl-6-oxo-1,6-dihydropyridazine-3-carboxamide] | 150 nM | 40 nM | – | –
Cn1cc(C(=O)Nc2ccc(Cc3cc(F)c(F)c(F)c3)cn2)ccc1=O [Compound 56, 1-methyl-6-oxo-N-(5-(3,4,5-trifluorobenzyl)pyridin-2-yl)-1,6-dihydropyridine-3-carboxamide] | – | – | 20 nM | 10 nM
O=C(Nc1ccc(Cc2cccc(F)c2)cn1)c1ncc(CO)cn1 [Compound 544] | 10 nM | 960 nM | – | –
Cn1nc(C(=O)Nc2ccc(CC3CCCCC3)cn2)ccc1=O [Example 38, N-(5-(cyclohexylmethyl)pyridin-2-yl)-1-methyl-6-oxo-1,6-dihydropyridazine-3-carboxamide] | 15700 nM | 890 nM | – | –
C[C@@H](O)c1ccc(C(=O)Nc2ccc(Cc3cccc(Cl)c3)cn2)cn1 [Compound 520] | 360 nM | 90 nM | – | –
CN1N=C(C(=O)Nc2ccc(Oc3ccc(Cl)cc3)cc2)CCC1=O [Compound 158, N-(4-(4-chlorophenoxy)phenyl)-1-methyl-6-oxo-1,4,5,6-tetrahydropyridazine-3-carboxamide] | 10500 nM | 6190 nM | – | –
COc1nccc(C(=O)Nc2ccc(Cc3cccc(F)c3)cn2)n1 [Compound 364] | 710 nM | 20 nM | – | –
Cn1cc(NC(=O)c2ccc(COc3ccccc3)cn2)ccc1=O [Compound 569] | > 45000 nM | 1200 nM | – | –
Cn1cc(C(=O)Nc2ccc(Cc3cc(F)cc(F)c3)cn2)cn1 [Compound 315] | 10 nM | 10 nM | – | –
Cc1nccc(C(=O)Nc2ccc(Cc3ccc(F)c(C#N)c3)cn2)n1 [Compound 113, N-(5-(3-cyano-4-fluorobenzyl)pyridin-2-yl)-2-methylpyrimidine-4-carboxamide] | 80 nM | 10 nM | – | –
O=C(Nc1ccc(Cc2cccc(F)c2)cn1)c1ccc2nccn2c1 [Compound 154, N-(5-(3-fluorobenzyl)pyridin-2-yl)imidazo[1,2-a]pyridine-6-carboxamide] | > 45000 nM | 14600 nM | – | –
CN(c1ccc(NC(=O)c2ccc(=O)n(C)c2)nc1)c1cccc(F)c1 [Compound 302] | > 45000 nM | 3340 nM | – | –
Cn1nccc(NC(=O)c2ccc(Cc3cccc(Cl)c3)cn2)c1=O [Compound 363] | 3160 nM | 130 nM | – | –
Cn1cc(C(=O)Nc2ncc(Cc3cccc(F)c3)s2)ccc1=O [Compound 224, N-(5-(3-fluorobenzyl)thiazol-2-yl)-1-methyl-6-oxo-1,6-dihydropyridine-3-carboxamide] | – | – | 310 nM | 220 nM
O=C(Nc1ccc(Cc2cccc(F)c2)nn1)c1ccc2nccn2n1 [Compound 238] | 4060 nM | 3960 nM | – | –
Cc1nc(NC(=O)C2=NN(C)C(=O)CC2)sc1Cc1cccc(F)c1 [Compound 219, N-(5-(3-fluorobenzyl)-4-methylthiazol-2-yl)-1-methyl-6-oxo-1,4,5,6-tetrahydropyridazine-3-carboxamide] | 1580 nM | 1350 nM | – | –
N#Cc1cnc(C(=O)Nc2ccc(Cc3cc(F)cc(F)c3)cn2)cn1 [Compound 639] | 490 nM | 39 nM | – | –

The next lines start with results.

IC50 (human SCD1; [1]) | IC50 (human SCD5; [2]) | SMILES | IC50 (human SCD1; SCD1 IC50) | IC50 (human SCD5; SCD5 IC50)
4300 nM | 280 nM | CCn1cc(C(=O)Nc2ccc(Cc3ccc(F)c(F)c3)cn2)ccc1=O [Compound 582] | – | –
> 45000 nM | 860 nM | Cn1nc(C(=O)Nc2ccc(OCc3cccc(Cl)c3)cn2)ccc1=O [Compound 171, N-(5-(3-chlorobenzyloxy)pyridin-2-yl)-1-methyl-6-oxo-1,6-dihydropyridazine-3-carboxamide] | – | –
17600 nM | > 45000 nM | CN1N=C(C(=O)Nc2cnc(Cc3cccc(F)c3)s2)CCC1=O [Compound 388] | – | –
39900 nM | 2030 nM | Cn1nc(C(=O)Nc2ccc(Cc3cc(C(F)(F)F)ccn3)cn2)ccc1=O [Compound 278] | – | –
570 nM | 10 nM | Cc1cc(C(=O)Nc2ccc(Cc3ccc(F)c(F)c3)cn2)cn(C)c1=O [Compound 679] | – | –
> 45000 nM | > 45000 nM | COc1ccc(Cn2c(C(=O)Nc3ccc(Cc4cccc(Cl)c4)cn3)cc(=O)n2C)cc1 [Compound 456] | – | –
10 nM | 10 nM | O=C(Nc1ccc(CC2CCCCC2)cn1)c1ccc(CO)nc1 [Compound 375] | – | –
250 nM | 10 nM | Cc1cc(C(=O)Nc2ccc(Cc3cccc(F)c3)cn2)nc(C)n1 [Compound 239] | – | –
> 45000 nM | 284 nM | Cc1cc(C(=O)Nc2ccc(Cc3cc(F)cc(C#N)c3)cn2)nn(C)c1=O [Compound 609] | – | –
> 45000 nM | 7600 nM | Cn1nc(C(=O)Nc2ccc(CC3CCCCC3)cn2)cc1O [Compound 476] | – | –
2740 nM | 80 nM | CN1N=C(C(=O)Nc2ccc(Cc3ccc(Cl)c(F)c3)cn2)CCC1=O [Compound 11, N-(5-(4-chloro-3-fluorobenzyl)pyridin-2-yl)-1-methyl-6-oxo-1,4,5,6-tetrahydropyridazine-3-carboxamide] | – | –
> 45000 nM | > 45000 nM | COc1ccc(C(=O)Nc2ncc(Cc3cccc(F)c3)s2)nn1 [Compound 404] | – | –
> 45000 nM | 380 nM | O=C(Nc1ccc(Cc2ccc(F)c(F)c2)cn1)c1ccc(Cl)nn1 [Compound 585] | – | –
> 45000 nM | > 45000 nM | Cn1cc(C(=O)N[C@H]2CC[C@@H](Cc3cccc(Cl)c3)CC2)ccc1=O [Compound 465] | – | –
> 45000 nM | 940 nM | Cn1nc(C(=O)Nc2ccc(COc3ccc(F)cc3)cn2)ccc1=O [Compound 599] | – | –
120 nM | 40 nM | Cn1cc(C(=O)Nc2ccc(Cc3cccc(F)c3)cn2)cn1 [Compound 356] | – | –
